Target: T1, VRAC (LRRC8A) (Homo sapiens, UniProt Q8IWT6)
T1 construct: endogenous VRAC channels of wild-type HEK293 cells; with at least one other LRRC8 subunit (LRRC8B-E; composition not determined)
T1 sequence (Q8IWT6 1-810): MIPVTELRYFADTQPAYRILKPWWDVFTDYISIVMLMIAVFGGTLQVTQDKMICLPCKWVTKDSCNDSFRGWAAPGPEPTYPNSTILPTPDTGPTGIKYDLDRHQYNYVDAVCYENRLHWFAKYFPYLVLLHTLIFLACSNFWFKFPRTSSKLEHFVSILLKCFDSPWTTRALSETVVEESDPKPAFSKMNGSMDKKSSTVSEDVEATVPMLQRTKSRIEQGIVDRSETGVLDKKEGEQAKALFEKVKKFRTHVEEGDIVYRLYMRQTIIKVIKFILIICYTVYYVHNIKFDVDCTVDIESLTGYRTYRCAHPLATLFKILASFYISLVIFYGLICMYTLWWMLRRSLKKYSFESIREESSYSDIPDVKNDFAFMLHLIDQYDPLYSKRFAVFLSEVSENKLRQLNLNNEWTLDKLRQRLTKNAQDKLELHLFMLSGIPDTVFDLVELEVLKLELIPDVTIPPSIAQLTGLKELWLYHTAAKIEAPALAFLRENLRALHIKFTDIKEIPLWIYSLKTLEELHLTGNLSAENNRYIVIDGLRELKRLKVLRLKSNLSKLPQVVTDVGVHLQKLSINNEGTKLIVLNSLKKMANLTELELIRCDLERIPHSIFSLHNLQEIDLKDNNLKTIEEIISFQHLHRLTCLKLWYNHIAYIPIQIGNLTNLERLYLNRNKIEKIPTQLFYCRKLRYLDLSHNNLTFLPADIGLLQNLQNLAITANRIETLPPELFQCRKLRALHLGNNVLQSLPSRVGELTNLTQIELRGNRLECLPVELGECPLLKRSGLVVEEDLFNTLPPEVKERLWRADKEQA
Assay: whole-cell patch clamp of hypotonicity-induced VRAC currents in HEK293; I/I0 […] at […]
Assay type: cell-based

COc1cc(/C=C/CO)cc(OC)c1O[C@@H]1O[C@H](CO)[C@@H](O)[C@H](O)[C@H]1O [Syringin, 4‐[(1E)‐3‐hydroxyprop‐1‐en‐1‐yl]‐2,6‐dimethoxyphenyl β‐D‐glucopyranoside]
whole-cell patch clamp of hypotonicity-induced VRAC currents in HEK293; I/I0 0.6: I/I0 0.61 ± 0.02 at 100 μM

— PMC10242655, “Syringin inhibits endogenous volume regulated anion channel currents of HEK293 cells in hypotonic circumstances” (Pharmacology Research & Perspectives, 2023)
